# Laboratory results published in US9499554B2, “Anti-influenza compositions and methods” (priority 2013, dated 2016).
# Test system: A/NJ/15/2007 (H1N1-H274Y)
# Format: cell-based, Influenza A
smiles,measurement,value
"Nc1ncnc2c([C@@H]3N[C@H](CO)[C@@H](O)[C@H]3O)c[nH]c12 [compound 1, (2S,3S,4R,5R)-2-(4-Amino-5H-pyrrolo[3,2-d]pyrimidin-7-yl)-5-(hydroxymethyl)pyrrolidine-3,4-diol]","EC50, antiviral activity in MDCK cells",1.39 µg/mL
